Data published in the supplement of paper PMC11061612.

Experiments:
Test in all cases: combination Emax (second highest fraction inhibited in the dose matrix, 72 h); higher = more inhibition; extreme values may be limits of the assay
[1] = system: NCI-H2405 (Lung Adenocarcinoma)
Outline: (§1)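 Cell lines grown in DMEM/F12 or RPMI with 10% FBS were plated in 1536-well plates and held 24 hours at 37°C, 5% CO2 before 72 hours of exposure to two-drug dose matrices, with DMSO typically at 0.2%. CellTiter-Glo 2.0 luminescence gave viability, which was converted to inhibition. Vehicle wells were set to 0 and blank wells to 1. Combination Emax is the second-highest inhibition in the matrix, and Bliss excess is the observed combination effect minus the expected EA + EB − EA·EB, where EA and EB are the single-agent effects.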

[2] = system: NCI-H2347 (Lung Adenocarcinoma)
Outline: as §1

[3] = system: DG-75 (Burkitt's Lymphoma)
Outline: as §1

[4] = system: IMR-5 (Neuroblastoma)
Outline: as §1

[5] = system: EMC-BAC-2 (Non-Small Cell Lung Carcinoma)
Outline: as §1

[6] = system: KP-2 (Pancreatic Carcinoma)
Outline: as §1

[7] = system: SNU-C1 (Colorectal Carcinoma)
Outline: as §1

[8] = system: SCC-3 (B-Cell Non-Hodgkin's Lymphoma)
Outline: as §1

[9] = system: EW-3 (Ewing's Sarcoma)
Outline: as §1

[10] = system: OVISE (Ovarian Carcinoma)
Outline: as §1

[11] = system: EW-13 (Ewing's Sarcoma)
Outline: as §1

[12] = system: BV-173 (Chronic Myelogenous Leukemia)
Outline: as §1

[13] = system: JHH-7 (Hepatocellular Carcinoma)
Outline: as §1

[14] = system: SCC-9 (Oral Cavity Carcinoma)
Outline: as §1

[15] = system: MFE-319 (Endometrial Carcinoma)
Outline: as §1

[16] = system: H-EMC-SS (Chondrosarcoma)
Outline: as §1

[17] = system: NCI-H1573 (Lung Adenocarcinoma)
Outline: as §1

[18] = system: EW-18 (Ewing's Sarcoma)
Outline: as §1

[19] = system: GI-1 (Glioblastoma)
Outline: as §1

[20] = system: KYSE-50 (Esophageal Squamous Cell Carcinoma)
Outline: as §1

| SMILES | combination Emax [1] | combination Emax [2] | combination Emax [3] | combination Emax [4] | combination Emax [5] | combination Emax [6] | combination Emax [7] | combination Emax [8] | combination Emax [9] | combination Emax [10] | combination Emax [11] | combination Emax [12] | combination Emax [13] | combination Emax [14] | combination Emax [15] | combination Emax [16] | combination Emax [17] | combination Emax [18] | combination Emax [19] | combination Emax [20] |
| --- | --- | --- | --- | --- | --- | --- | --- | --- | --- | --- | --- | --- | --- | --- | --- | --- | --- | --- | --- | --- |
| COc1cc2c(cc1OCCCCCOc1cc3c(cc1OC)C(=O)N1C=C(C)C[C@H]1C=N3)N=C[C@@H]1CC(C)=CN1C2=O [SG3199] + O=C(c1cc(Cc2n[nH]c(=O)c3ccccc23)ccc1F)N1CCN(C(=O)C2CC2)CC1 [Olaparib] (first compound max 0.001 µM, 7x7, partner max 10 µM) | 0.081 | 0.181 | 0.201 | 0.543 | 0.169 | 0.13 | 0.0546 | 0.437 | 0.634 | 0.0965 | 0.584 | 0.932 | 0.108 | 0.0776 | 0.12 | 0.0837 | 0.0928 | 0.0839 | 0.175 | 0.0539 |
| C[C@@H](c1ccc2nccn2c1)n1nnc2ncc(-c3cnn(C)c3)nc21 [Savolitinib] + CC1(C)CCC(CN2CCN(c3ccc(C(=O)NS(=O)(=O)c4ccc(NCC5CCOCC5)c([N+](=O)[O-])c4)c(Oc4cnc5[nH]ccc5c4)c3)CC2)=C(c2ccc(Cl)cc2)C1 [Venetoclax] (first compound max 1 µM, 7x7, partner max 1 µM) | 0.038 | 0.116 | 0.16 | 0.173 | 0.0698 | 0.148 | 0.133 | 0.0971 | 0.379 | 0.0991 | 0.128 | 0.781 | 0.114 | 0.116 | 0 | 0.183 | 0.203 | 0.229 | 0.317 | 0.196 |
| Cc1cc2ncnn2cc1Nc1ncc2c(n1)n(C1CCOCC1)c(=O)n2C [AZD7648] + O=C(c1cc(Cc2n[nH]c(=O)c3ccccc23)ccc1F)N1CCN(C(=O)C2CC2)CC1 [Olaparib] (first compound max 10 µM, 7x7, partner max 10 µM) | 0.093 | 0.224 | 0.481 | 0.475 | 0.204 | 0.12 | 0.158 | 0.435 | 0.657 | 0.19 | 0.564 | 0.897 | 0.159 | 0.0663 | 0.118 | 0.321 | 0.0771 | 0.369 | 0.261 | 0.0839 |
| CCN(CCO)CCCOc1ccc2c(Nc3cc(CC(=O)Nc4cccc(F)c4)[nH]n3)ncnc2c1 [AZD2811] + O=C(c1cc(Cc2n[nH]c(=O)c3ccccc23)ccc1F)N1CCN(C(=O)C2CC2)CC1 [Olaparib] (first compound max 1 µM, 7x7, partner max 10 µM) | 0.234 | 0.186 | 0.307 | 0.962 | 0.31 | 0.0558 | 0.276 | 0.488 | 0.675 | 0.272 | 0.701 | 0.982 | 0.218 | 0.19 | 0.245 | 0.236 | 0.152 | 0.667 | 0.328 | 0.282 |
| Cc1cc2ncnn2cc1Nc1ncc2c(n1)n(C1CCOCC1)c(=O)n2C [AZD7648] + CCN(CCO)CCCOc1ccc2c(Nc3cc(CC(=O)Nc4cccc(F)c4)[nH]n3)ncnc2c1 [AZD2811] (first compound max 10 µM, 7x7, partner max 1 µM) | 0.188 | 0.302 | 0.475 | 0.98 | 0.349 | 0.0095 | 0.351 | 0.338 | 0.397 | 0.308 | 0.291 | 0.964 | 0.296 | 0.342 | 0.278 | 0.545 | 0.214 | 0.68 | 0.425 | 0.341 |
| CN(C)CCCOc1ccc(-c2ccc3ncc4c(c3c2)n(C2CCOCC2)c(=O)n4C)cn1 [AZD0156] + C[C@@H]1COCCN1C2=NC(=NC(=C2)C3(CC3)[S@](=N)(=O)C)C4=C5C=CNC5=NC=C4 [AZD6738] (first compound max 1 µM, 7x7, partner max 10 µM) | 0.229 | 0.346 | 0.939 | 0.926 | 0.676 | 0.158 | 0.489 | 0.998 | 0.751 | 0.759 | 0.581 | 0.975 | 0.32 | 0.321 | 0.683 | 0.402 | 0.58 | 0.727 | 0.926 | 0.674 |
| CC(=O)c1c(C)c2cnc(Nc3ccc(N4CCNCC4)cn3)nc2n(C2CCCC2)c1=O [Palbociclib] + Cn1cnc2c(F)c(Nc3ccc(Br)cc3Cl)c(C(=O)NOCCO)cc21 [Selumetinib] (first compound max 10 µM, 7x7, partner max 10 µM) | 0.428 | 0.38 | 0.723 | 0.612 | 0.362 | 0.376 | 0.598 | 0.503 | 0.45 | 0.271 | 0.113 | 0.733 | 0.323 | 0.397 | 0.31 | 0.414 | 0.565 | 0.58 | 0.0397 | 0.357 |
